Test results published in publication PMC12716163 (Nanoscale, 2024).

Experiments:
Aqueous solubility = format: physicochemical
c-Met = c-Met (Homo sapiens, UniProt P08581); assay: c-Met inhibition IC50; format: biochemical; conditions: read-out: c-Met inhibitory activity IC50
PC3-PIP PSMA (+) cells = assay: CellTiter-Glo cell viability; format: cell-based, human; conditions: 72 H, equivalent drug bases
PSMA = PSMA (Homo sapiens, UniProt Q04609); conditions: irreversible inhibitor; cited from earlier work
PSMA, sequence (Q04609 whole entry): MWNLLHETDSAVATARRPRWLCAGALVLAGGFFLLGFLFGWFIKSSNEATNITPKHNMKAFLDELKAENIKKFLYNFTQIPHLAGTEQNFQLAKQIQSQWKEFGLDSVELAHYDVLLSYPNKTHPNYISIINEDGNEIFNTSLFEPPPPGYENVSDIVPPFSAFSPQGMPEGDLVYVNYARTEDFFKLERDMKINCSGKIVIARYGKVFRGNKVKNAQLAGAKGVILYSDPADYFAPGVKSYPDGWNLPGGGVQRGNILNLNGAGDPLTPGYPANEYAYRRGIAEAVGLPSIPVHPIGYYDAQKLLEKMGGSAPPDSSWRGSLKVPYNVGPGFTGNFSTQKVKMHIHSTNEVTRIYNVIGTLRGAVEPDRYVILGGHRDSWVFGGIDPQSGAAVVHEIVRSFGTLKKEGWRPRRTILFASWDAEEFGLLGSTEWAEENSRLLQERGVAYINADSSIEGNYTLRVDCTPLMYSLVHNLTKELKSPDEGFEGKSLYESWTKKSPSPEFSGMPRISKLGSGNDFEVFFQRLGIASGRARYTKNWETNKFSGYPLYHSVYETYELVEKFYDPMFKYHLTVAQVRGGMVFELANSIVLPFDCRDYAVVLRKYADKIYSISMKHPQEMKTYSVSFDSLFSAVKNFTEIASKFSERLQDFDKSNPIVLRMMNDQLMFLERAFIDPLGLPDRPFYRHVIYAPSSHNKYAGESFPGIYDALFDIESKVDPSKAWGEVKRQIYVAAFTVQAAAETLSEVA

c-Met, sequence (P08581 25-1390): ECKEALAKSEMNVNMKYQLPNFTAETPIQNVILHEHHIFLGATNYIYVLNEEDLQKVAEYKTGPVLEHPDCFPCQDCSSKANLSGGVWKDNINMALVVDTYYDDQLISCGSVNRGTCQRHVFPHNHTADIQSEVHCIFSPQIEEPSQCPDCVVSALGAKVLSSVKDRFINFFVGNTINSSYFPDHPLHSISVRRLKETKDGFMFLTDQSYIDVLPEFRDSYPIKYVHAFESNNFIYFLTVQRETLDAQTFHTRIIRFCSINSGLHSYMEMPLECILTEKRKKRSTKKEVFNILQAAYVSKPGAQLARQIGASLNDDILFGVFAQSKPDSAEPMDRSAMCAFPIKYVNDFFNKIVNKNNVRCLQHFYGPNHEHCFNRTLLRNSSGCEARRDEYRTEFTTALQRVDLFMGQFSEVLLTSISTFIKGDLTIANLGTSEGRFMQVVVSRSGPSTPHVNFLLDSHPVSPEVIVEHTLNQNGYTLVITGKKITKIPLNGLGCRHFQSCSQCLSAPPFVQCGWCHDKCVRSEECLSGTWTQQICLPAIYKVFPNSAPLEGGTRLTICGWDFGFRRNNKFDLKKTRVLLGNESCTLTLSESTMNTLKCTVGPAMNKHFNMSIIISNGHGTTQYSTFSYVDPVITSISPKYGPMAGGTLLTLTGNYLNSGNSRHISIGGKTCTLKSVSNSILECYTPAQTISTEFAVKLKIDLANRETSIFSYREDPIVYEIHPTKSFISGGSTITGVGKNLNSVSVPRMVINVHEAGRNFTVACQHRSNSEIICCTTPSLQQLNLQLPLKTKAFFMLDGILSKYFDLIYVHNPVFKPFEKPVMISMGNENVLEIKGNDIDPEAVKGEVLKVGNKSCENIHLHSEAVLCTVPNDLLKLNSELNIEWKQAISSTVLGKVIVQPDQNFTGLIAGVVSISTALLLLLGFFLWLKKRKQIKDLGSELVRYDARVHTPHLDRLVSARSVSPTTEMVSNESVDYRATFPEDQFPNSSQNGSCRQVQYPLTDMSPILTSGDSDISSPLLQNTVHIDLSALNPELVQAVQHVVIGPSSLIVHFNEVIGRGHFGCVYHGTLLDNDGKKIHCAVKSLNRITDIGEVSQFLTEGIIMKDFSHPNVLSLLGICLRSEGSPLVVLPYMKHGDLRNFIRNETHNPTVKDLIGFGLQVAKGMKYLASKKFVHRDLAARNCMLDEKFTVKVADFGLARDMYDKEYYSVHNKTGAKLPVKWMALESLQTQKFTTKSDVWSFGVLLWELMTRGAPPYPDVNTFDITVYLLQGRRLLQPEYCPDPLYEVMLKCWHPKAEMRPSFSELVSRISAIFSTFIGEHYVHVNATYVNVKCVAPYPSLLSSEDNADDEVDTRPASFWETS

| Compound | aqueous solubility (Aqueous solubility) | IC50 (c-Met) [nM] | anti-proliferative IC50 (PC3-PIP PSMA (+) cells) [µg/mL] | PSMA affinity (PSMA) |
| --- | --- | --- | --- | --- |
| COc1cc2nccc(Oc3ccc(NC(=O)C4(C(=O)Nc5ccc(F)cc5)CC4)cc3)c2cc1OC [Cabo, cabozantinib, reference compound] | poor aqueous solubility |  |  |  |
| COc1cc2c(Oc3ccc(NC(=O)C4(C(=O)Nc5ccc(F)cc5)CC4)cc3)ccnc2cc1O [Cabo-OH] | poor aqueous solubility | 26.3 | 77.30 ± 4.35 |  |
| O=C(O)CC[C@H](NP(=O)(O)OCCC[C@H](NC(=O)CC[C@H](NC(=O)CCCCCNC(=O)c1ccc(F)cc1)C(=O)O)C(=O)O)C(=O)O [CTT 1057] |  |  |  | nanomolar affinity |
